# Structures can show the parent of a compound that is named as a salt.
# What was measured:
# [1] = biological target: T1, Neuropeptide Y receptor type 5 (Homo sapiens, UniProt Q15761)
# T1 sequence (Q15761 whole entry): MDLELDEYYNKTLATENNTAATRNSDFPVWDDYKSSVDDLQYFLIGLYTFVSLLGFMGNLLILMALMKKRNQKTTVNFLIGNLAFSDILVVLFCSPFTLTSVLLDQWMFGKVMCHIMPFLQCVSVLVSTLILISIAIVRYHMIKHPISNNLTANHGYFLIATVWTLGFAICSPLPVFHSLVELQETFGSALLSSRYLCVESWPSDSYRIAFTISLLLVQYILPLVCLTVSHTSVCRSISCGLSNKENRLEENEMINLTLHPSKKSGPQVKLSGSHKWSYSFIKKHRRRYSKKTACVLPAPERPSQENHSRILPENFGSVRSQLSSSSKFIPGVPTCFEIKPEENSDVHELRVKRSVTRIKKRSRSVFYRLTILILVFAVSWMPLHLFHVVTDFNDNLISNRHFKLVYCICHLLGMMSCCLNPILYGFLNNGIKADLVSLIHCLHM
# [2] = biological target: T2, Neuropeptide Y receptor type 2 (Homo sapiens, UniProt P49146)
# T2 sequence (P49146 whole entry): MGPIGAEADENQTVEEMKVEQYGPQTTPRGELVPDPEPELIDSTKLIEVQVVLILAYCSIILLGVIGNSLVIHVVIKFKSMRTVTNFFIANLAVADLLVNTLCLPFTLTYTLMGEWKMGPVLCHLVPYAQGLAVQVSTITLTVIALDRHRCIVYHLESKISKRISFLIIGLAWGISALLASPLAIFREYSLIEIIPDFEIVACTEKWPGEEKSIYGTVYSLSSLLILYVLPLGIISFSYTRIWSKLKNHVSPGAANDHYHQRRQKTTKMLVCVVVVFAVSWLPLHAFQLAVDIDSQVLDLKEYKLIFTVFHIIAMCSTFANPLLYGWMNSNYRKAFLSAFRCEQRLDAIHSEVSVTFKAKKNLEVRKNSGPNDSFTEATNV
# [3] = biological target: T3, Neuropeptide Y receptor type 1 (Homo sapiens, UniProt P25929)
# T3 sequence (P25929 whole entry): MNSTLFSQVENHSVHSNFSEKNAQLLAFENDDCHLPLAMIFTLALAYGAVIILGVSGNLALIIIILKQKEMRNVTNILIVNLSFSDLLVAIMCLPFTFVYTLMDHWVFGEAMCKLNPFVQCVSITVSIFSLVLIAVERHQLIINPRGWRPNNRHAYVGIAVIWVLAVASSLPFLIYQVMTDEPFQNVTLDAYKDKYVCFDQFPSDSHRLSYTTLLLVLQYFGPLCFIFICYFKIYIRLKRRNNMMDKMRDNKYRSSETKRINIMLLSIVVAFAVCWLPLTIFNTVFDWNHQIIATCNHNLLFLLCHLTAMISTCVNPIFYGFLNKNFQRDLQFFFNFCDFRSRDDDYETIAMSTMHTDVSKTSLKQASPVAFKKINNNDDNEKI
IC50 [1],IC50 [2],IC50 [3],Structure (SMILES)
4.3 nM,> 10000 nM,,"CC(C)n1c2c(c3cc(NC(=O)N(C)CCc4ccncc4)ccc31)CCCC2 [3-(5,6,7,8-tetrahydro-9-isopropyl-carbazol-3-yl)-1-methyl-1-(2-pyridin-4-yl-ethyl)-ureanbsphydrochloride]"
25 nM,> 10000 nM,> 10000 nM,CC1(C)CC(=O)C(C2C3=C(CC(C)(C)CC3=O)Oc3ccccc32)C(=O)C1 (stereo not given) [CAS_6508-43-6]

# Source: BindingDB's records for doi:10.1124/jpet.105.099705 (Meiji Seika Kaisha, 2006)
